Active and inactive are the calls of the source. No cut-off for these calls is given here.
Assays:
[1] = test system: PC-3; experiment: Growth inhibition of human PC3 cells after 48 hrs by SRB assay; format: functional; settings: PC-3, 48 h
[2] = test system: DU-145; experiment: Growth inhibition of human DU145 cells after 48 hrs by SRB assay; format: functional; settings: DU-145, 48 h
[3] = test system: MCF7; experiment: Growth inhibition of human MCF7 cells after 48 hrs by SRB assay; format: functional; settings: MCF7, 48 h
[4] = test system: MDA-MB-231; experiment: Growth inhibition of human MDA-MB-231 cells after 48 hrs by SRB assay; format: functional; settings: MDA-MB-231, 48 h
[5] = Growth inhibition of human Hs578T cells after 48 hrs by SRB assay; format: functional; settings: Hs-578T
[6] = Growth inhibition of human BT549 cells after 48 hrs by SRB assay; format: functional; settings: BT-549, 48 h
[7] = test system: T47D; experiment: Growth inhibition of human T47D cells after 48 hrs by SRB assay; format: functional
[8] = test system: MDA-MB-468; experiment: Growth inhibition of human MDA-MB-468 cells after 48 hrs by SRB assay; format: functional; settings: MDA-MB-468, 48 h
[9] = Growth inhibition of human LOXIMVI cells after 48 hrs by SRB assay; format: functional; settings: LOX IMVI
[10] = test system: Malme-3M; experiment: Growth inhibition of human MALME-3M cells after 48 hrs by SRB assay; format: functional
[11] = test system: M14; experiment: Growth inhibition of human M14 cells after 48 hrs by SRB assay; format: functional; settings: M14, 48 h
[12] = test system: MDA-MB-435; experiment: Growth inhibition of human MDA-MB-435 cells after 48 hrs by SRB assay; format: functional; settings: MDA-MB-435, 48 h
[13] = test system: SK-MEL-2; experiment: Growth inhibition of human SK-MEL-2 cells after 48 hrs by SRB assay; format: functional; settings: SK-MEL-2, 48 h
[14] = test system: SK-MEL-28; experiment: Growth inhibition of human SK-MEL-28 cells after 48 hrs by SRB assay; format: functional; settings: SK-MEL-28, 48 h
[15] = test system: SK-MEL-5; experiment: Growth inhibition of human SK-MEL-5 cells after 48 hrs by SRB assay; format: functional; settings: SK-MEL-5, 48 h
[16] = Growth inhibition of human UACC62 cells after 48 hrs by SRB assay; format: functional; settings: UACC-62, 48 h
[17] = Growth inhibition of human UACC257 cells after 48 hrs by SRB assay; format: functional; settings: UACC-257, 48 h
[18] = test system: MCF7; experiment: Growth inhibition of human MCF7 cells assessed as cell viability at 4 uM after 24 hrs by MTT assay; format: functional, cell-based
[19] = test system: MCF7; experiment: Cell cycle arrest in human MCF7 cells assessed as accumulation at G0/G1 phase at 4 uM after 24 hrs by propidium iodide staining-based flow cytometry (reference value: 64.04%); format: functional
[20] = test system: MCF7; experiment: Cell cycle arrest in human MCF7 cells assessed as accumulation at S phase at 4 uM after 24 hrs by propidium iodide staining-based flow cytometry (reference value: 20.17%); format: functional
[21] = test system: MCF7; experiment: Cell cycle arrest in human MCF7 cells assessed as accumulation at G2/M phase at 4 uM after 24 hrs by propidium iodide staining-based flow cytometry (reference value: 15.79%); format: functional
[22] = test system: CCRF-CEM; experiment: Growth inhibition of human CCRF-CEM cells after 48 hrs by SRB assay; format: functional
[23] = test system: HL-60(TB); experiment: Growth inhibition of human HL-60(TB) cells after 48 hrs by SRB assay; format: functional; settings: HL-60, 48 h
[24] = test system: K562; experiment: Growth inhibition of human K562 cells after 48 hrs by SRB assay; format: functional; settings: K562, 48 h
[25] = Growth inhibition of human MOLT4 cells after 48 hrs by SRB assay; format: functional; settings: MOLT-4, 48 h
[26] = test system: SR; experiment: Growth inhibition of human SR cells after 48 hrs by SRB assay; format: functional
[27] = test system: RPMI-8226; experiment: Growth inhibition of human RPMI8226 cells after 48 hrs by SRB assay; format: functional; settings: RPMI-8226, 48 h
[28] = test system: A549; experiment: Growth inhibition of human A549 cells after 48 hrs by SRB assay; format: functional; settings: A549, 48 h
[29] = Growth inhibition of human EKVX cells after 48 hrs by SRB assay; format: functional
[30] = test system: HOP-62; experiment: Growth inhibition of human HOP62 cells after 48 hrs by SRB assay; format: functional; settings: HOP-62, 48 h
[31] = Growth inhibition of human HOP92 cells after 48 hrs by SRB assay; format: functional; settings: HOP-92, 48 h
[32] = test system: NCI-H226; experiment: Growth inhibition of human NCI-H226 cells after 48 hrs by SRB assay; format: functional; settings: NCI-H226, 48 h
[33] = test system: NCI-H23; experiment: Growth inhibition of human NCI-H23 cells after 48 hrs by SRB assay; format: functional; settings: NCI-H23, 48 h
[34] = test system: NCI-H322M; experiment: Growth inhibition of human NCI-H322M cells after 48 hrs by SRB assay; format: functional
[35] = test system: NCI-H460; experiment: Growth inhibition of human NCI-H460 cells after 48 hrs by SRB assay; format: functional; settings: NCI-H460, 48 h
[36] = test system: NCI-H522; experiment: Growth inhibition of human NCI-H522 cells after 48 hrs by SRB assay; format: functional; settings: NCI-H522, 48 h
[37] = test system: COLO 205; experiment: Growth inhibition of human COLO205 cells after 48 hrs by SRB assay; format: functional; settings: COLO 205, 48 h
[38] = Growth inhibition of human HCC2998 cells after 48 hrs by SRB assay; format: functional; settings: HCC 2998, 48 h
[39] = test system: HCT-116; experiment: Growth inhibition of human HCT116 cells after 48 hrs by SRB assay; format: functional; settings: HCT-116, 48 h
[40] = Growth inhibition of human HCT15 cells after 48 hrs by SRB assay; format: functional; settings: HCT-15, 48 h
[41] = test system: HT-29; experiment: Growth inhibition of human HT-29 cells after 48 hrs by SRB assay; format: functional; settings: HT-29, 48 h
[42] = test system: KM12; experiment: Growth inhibition of human KM12 cells after 48 hrs by SRB assay; format: functional; settings: KM12, 48 h
[43] = test system: SW-620; experiment: Growth inhibition of human SW620 cells after 48 hrs by SRB assay; format: functional; settings: SW-620, 48 h
[44] = test system: SF-268; experiment: Growth inhibition of human SF268 cells after 48 hrs by SRB assay; format: functional; settings: SF-268, 48 h
[45] = Growth inhibition of human SF295 cells after 48 hrs by SRB assay; format: functional; settings: SF-295, 48 h
[46] = Growth inhibition of human SF539 cells after 48 hrs by SRB assay; format: functional; settings: SF-539, 48 h
[47] = test system: SNB-19; experiment: Growth inhibition of human SNB19 cells after 48 hrs by SRB assay; format: functional; settings: SNB-19, 48 h
[48] = test system: SNB-75; experiment: Growth inhibition of human SNB75 cells after 48 hrs by SRB assay; format: functional; settings: SNB-75, 48 h
[49] = test system: U-251; experiment: Growth inhibition of human U251 cells after 48 hrs by SRB assay; format: functional; settings: U-251, 48 h
[50] = test system: IGROV-1; experiment: Growth inhibition of human IGROV1 cells after 48 hrs by SRB assay; format: functional; settings: IGROV-1, 48 h
[51] = Growth inhibition of human OVCAR3 cells after 48 hrs by SRB assay; format: functional; settings: OVCAR-3, 48 h
[52] = Growth inhibition of human OVCAR4 cells after 48 hrs by SRB assay; format: functional; settings: OVCAR-4, 48 h
[53] = Growth inhibition of human OVCAR5 cells after 48 hrs by SRB assay; format: functional; settings: OVCAR-5, 48 h
[54] = Growth inhibition of human OVCAR8 cells after 48 hrs by SRB assay; format: functional; settings: OVCAR-8, 48 h
[55] = Growth inhibition of human NCI-ADR-RES cells after 48 hrs by SRB assay; format: functional
[56] = test system: SK-OV-3; experiment: Growth inhibition of human SKOV3 cells after 48 hrs by SRB assay; format: functional; settings: SK-OV-3, 48 h
[57] = test system: 786-0; experiment: Growth inhibition of human 786-0 cells after 48 hrs by SRB assay; format: functional; settings: 786-0, 48 h
[58] = test system: A498; experiment: Growth inhibition of human A498 cells after 48 hrs by SRB assay; format: functional; settings: A498, 48 h
[59] = test system: ACHN; experiment: Growth inhibition of human ACHN cells after 48 hrs by SRB assay; format: functional
[60] = test system: CAKI-1; experiment: Growth inhibition of human Caki1 cells after 48 hrs by SRB assay; format: functional; settings: CAKI-1, 48 h
[61] = Growth inhibition of human RXF393 cells after 48 hrs by SRB assay; format: functional; settings: RXF 393, 48 h
[62] = test system: SN12C; experiment: Growth inhibition of human SN12C cells after 48 hrs by SRB assay; format: functional
[63] = test system: TK-10; experiment: Growth inhibition of human TK10 cells after 48 hrs by SRB assay; format: functional; settings: TK-10, 48 h
[64] = Growth inhibition of human UO31 cells after 48 hrs by SRB assay; format: functional; settings: UO-31, 48 h

## COc1cc(C(=O)/C=C/c2c(C(F)(F)F)nc3ccccn23)cc(OC)c1OC
[1]
  GI50: 3800 nM
[2]
  GI50: 1610 nM
[3]
  GI50: 1440 nM
[4]
  GI50: 4590 nM
[5]
  GI50: 3270 nM
[6]
  GI50: 1640 nM
[7]
  GI50: 3520 nM
[8]
  GI50: 2120 nM
[9]
  GI50: 1660 nM
[10]
  GI50: 1570 nM
[11]
  GI50: 1820 nM
[12]
  GI50: 2260 nM
[13]
  GI50: 2430 nM
[14]
  GI50: 1930 nM
[15]
  GI50: 1620 nM
[16]
  GI50: 2050 nM
[17]
  GI50: 1660 nM
[18]
  inhibition: Active
[19]
  Activity: 95.24%
[20]
  Activity: 4.1%
[21]
  Activity: 0.66%
[22]
  GI50: 4150 nM
[23]
  GI50: 4120 nM
[24]
  GI50: 2830 nM
[25]
  GI50: 3730 nM
[26]
  GI50: 2910 nM
[27]
  GI50: 1980 nM
[28]
  GI50: 4040 nM
[29]
  GI50: 2370 nM
[30]
  GI50: 2970 nM
[31]
  GI50: 2650 nM
[32]
  GI50: 3550 nM
[33]
  GI50: 1510 nM
[34]
  GI50: 1660 nM
[35]
  GI50: 2010 nM
[36]
  GI50: 1770 nM
[37]
  GI50: 2110 nM
[38]
  GI50: 1830 nM
[39]
  GI50: 1260 nM
[40]
  GI50: 2100 nM
[41]
  GI50: 1930 nM
[42]
  GI50: 1730 nM
[43]
  GI50: 1680 nM
[44]
  GI50: 1640 nM
[45]
  GI50: 1990 nM
[46]
  GI50: 1630 nM
[47]
  GI50: 1930 nM
[48]
  GI50: 1760 nM
[49]
  GI50: 1290 nM
[50]
  GI50: 2230 nM
[51]
  GI50: 1830 nM
[52]
  GI50: 4100 nM
[53]
  GI50: 1980 nM
[54]
  GI50: 3390 nM
[55]
  GI50: 1410 nM
[56]
  GI50: 4040 nM
[57]
  GI50: 1720 nM
[58]
  GI50: 2400 nM
[59]
  GI50: 1950 nM
[60]
  GI50: 1820 nM
[61]
  GI50: 1870 nM
[62]
  GI50: 2090 nM
[63]
  GI50: 2090 nM
[64]
  GI50: 1490 nM

— ChEMBL document CHEMBL3217491, “Design, synthesis and biological evaluation of imidazopyridine/pyrimidine-chalcone derivatives as potential anticancer agents” (2010)
